Data from patent US9957264B2 (Merck Sharp & Dohme Corp., priority 2013, dated 2018).

Legend:
[1] = molecular target: JAK1 (recombinant purified GST-tagged catalytic domain) (Homo sapiens (Human), UniProt P23458); assay: Jak Biochemical HTRF Assay (JAK1); details: [ATP] 31.8 μM
Method in brief: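 Read-out is the 665/615 nm time-resolved FRET ratio from Eu-pY20 antibody and streptavidin-Dylight 650 bound to phosphorylated biotin-peptide. Reactions ran 120 min at room temperature after ATP start. Inhibition normalized to untreated controls gave IC50 via 4-parameter fit.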

[2] = molecular target: JAK2 (recombinant purified GST-tagged catalytic domain) (Homo sapiens (Human), UniProt O60674); assay: Jak Biochemical HTRF Assay (JAK2); details: [ATP] 8.5 μM
JAK2 (recombinant purified GST-tagged catalytic domain), sequence (O60674 849-1124): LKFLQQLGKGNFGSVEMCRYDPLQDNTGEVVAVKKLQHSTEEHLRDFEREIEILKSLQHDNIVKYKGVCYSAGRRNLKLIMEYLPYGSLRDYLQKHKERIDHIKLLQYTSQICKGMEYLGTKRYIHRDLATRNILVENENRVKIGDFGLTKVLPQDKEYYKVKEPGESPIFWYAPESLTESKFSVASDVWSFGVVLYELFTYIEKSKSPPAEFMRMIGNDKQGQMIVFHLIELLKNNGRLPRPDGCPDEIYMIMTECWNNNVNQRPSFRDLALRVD

JAK1 (recombinant purified GST-tagged catalytic domain), sequence (P23458 875-1153): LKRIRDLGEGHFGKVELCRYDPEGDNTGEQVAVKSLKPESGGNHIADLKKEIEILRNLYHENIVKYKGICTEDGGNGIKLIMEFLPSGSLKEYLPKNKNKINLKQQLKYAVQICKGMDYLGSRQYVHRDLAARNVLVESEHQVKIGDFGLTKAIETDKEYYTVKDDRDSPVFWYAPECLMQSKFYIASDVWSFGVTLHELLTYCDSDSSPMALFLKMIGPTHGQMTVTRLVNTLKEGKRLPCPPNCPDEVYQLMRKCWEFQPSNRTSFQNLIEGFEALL

| SMILES | IC50 [1] | IC50 [2] |
| --- | --- | --- |
| Cc1cc(Nc2nn([C@@]3(CC#N)CCOC[C@H]3F)c3cc[nH]c(=O)c23)ccc1C(=O)N1CCOCC1 (single isomer, unassigned) [Example 5-257, 2-((3S,4S or 3R,4R)-3-fluoro-4-(3-(3-methyl-4-(morpholine-4-carbonyl)phenylamino)-4-oxo-4,5-dihydropyrazolo[4,3-c]pyridin-1-yl)-tetrahydro-2H-pyran-4-yl)acetonitrile] | 2.08 nM | 3.17 nM |
| CC(C)(C)OC(=O)N1CCC(CC#N)(n2nc(Nc3ccc([C@]4(C(F)(F)F)CCCN4)cc3)c3c(=O)[nH]ccc32)CC1 (single isomer, unassigned) [Example 21-19, (S or R)-tert-butyl 4-(cyanomethyl)-4-(4-oxo-3-(4-(2-(trifluoromethyl)pyrrolidin-2-yl)phenylamino)-4,5-dihydropyrazolo[4,3-c]pyridin-1-yl)piperidine-1-carboxylate] | 0.45 nM | 0.5 nM |
| COC(=O)N1CCC(CC#N)(n2nc(Nc3ccc(C(F)(F)F)cc3)c3c(=O)[nH]ccc32)CC1 [Example 5-147, methyl 4-(cyanomethyl)-4-(4-oxo-3-((4-(trifluoromethyl)phenyl)amino)-4,5-dihydro-1H-pyrazolo[4,3-c]pyridin-1-yl)piperidine-1-carboxylate] | 0.32 nM | 2.95 nM |
| CC(C)NC(C)(C)c1ccc(Nc2nn([C@@]3(CC#N)CCN(C(=O)OC(C)(C)C)C[C@H]3F)c3cc[nH]c(=O)c23)cc1 [Example 5-273, tert-butyl (3R,4R)-4-(cyanomethyl)-3-fluoro-4-{3-[(4-{1-methyl-1-[(1-methylethyl)amino]ethyl}phenyl)amino]-4-oxo-4,5-dihydro-1H-pyrazolo[4,3-c]pyridin-1-yl}piperidine-1-carboxylate] | 0.17 nM | 0.14 nM |
| CN(C)C(c1ccc(Nc2nn([C@]3(CC#N)CC[C@@H](C(=O)OC(C)(C)C)OC3)c3cc[nH]c(=O)c23)cc1)C(F)(F)F (single isomer, unassigned) [Example 5-213, (2S,5S)-tert-butyl 5-(cyanomethyl)-5-(3-((4-((R or S)-1-(dimethylamino)-2,2,2-trifluoroethyl)phenyl)amino)-4-oxo-4,5-dihydro-1H-pyrazolo[4,3-c]pyridin-1-yl)tetrahydro-2H-pyran-2-carboxylate] | 0.19 nM | 0.29 nM |
| CC(C)NC(C)(C)c1ccc(Nc2nn([C@]3(CC#N)CC[C@@H](C(=O)OC(C)(C)C)OC3)c3cc[nH]c(=O)c23)cc1 [Example 5-274, (2S,5S)-tert-butyl 5-(cyanomethyl)-5-(3-((4-(2-(isopropylamino)propan-2-yl)phenyl)amino)-4-oxo-4,5-dihydro-1H-pyrazolo[4,3-c]pyridin-1-yl)tetrahydro-2H-pyran-2-carboxylate] | 0.36 nM | 0.26 nM |
| CN(C)S(=O)(=O)c1ccc(Nc2nn(C3(CC#N)CCN(CCc4ccccc4)CC3)c3cc[nH]c(=O)c23)cc1 [Example 8-18, 4-((1-(4-(cyanomethyl)-1-phenethylpiperidin-4-yl)-4-oxo-4,5-dihydro-1H-pyrazolo[4,3-c]pyridin-3-yl)amino)-N,N-dimethylbenzenesulfonamide] | 3.16 nM | 14 nM |
| CC(C)(C)N1Cc2cc(Nc3nn(C4(CC#N)CCOCC4)c4cc[nH]c(=O)c34)ccc2S1(=O)=O [Example 5-251, 2-(4-(3-((2-(tert-butyl)-1,1-dioxido-2,3-dihydrobenzo[d]isothiazol-5-yl)amino)-4-oxo-4,5-dihydro-1H-pyrazolo[4,3-c]pyridin-1-yl)tetrahydro-2H-pyran-4-yl)acetonitrile] | 0.06 nM | 0.78 nM |
| CN(C)S(=O)(=O)c1ccc(Nc2nn(C3(CC#N)CCN(C(=O)C4CCOCC4)CC3)c3cc[nH]c(=O)c23)cc1 [Example 9-20, 4-({1-[4-(cyanomethyl)-1-(tetrahydro-2H-pyran-4-ylcarbonyl)piperidin-4-yl]-4-oxo-4,5-dihydro-1H-pyrazolo[4,3-c]pyridin-3-yl}amino)-N,N-dimethylbenzenesulfonamide] | 0.31 nM | 2.48 nM |
| CC(c1ccc(Nc2nn([C@]3(CC#N)CCCOC3)c3cc[nH]c(=O)c23)cc1)N1CCCC1 (single isomer, unassigned) [Example 5-201, {(3S)-3-[4-oxo-3-({4-[(1R or 1S)-1-pyrrolidin-1-ylethyl]phenyl}amino)-4,5-dihydro-1H-pyrazolo[4,3-c]pyridin-1-yl]tetrahydro-2H-pyran-3-yl}acetonitrile] | 0.49 nM | 0.27 nM |
| CC(C)(C)S(=O)(=O)c1ccc(Nc2nn([C@@]3(CC#N)CCOC3)c3cc[nH]c(=O)c23)cc1 (single isomer, unassigned) [Example 5-249, (S or R)-2-(3-(3-((4-(tert-butylsulfonyl)phenyl)amino)-4-oxo-4,5-dihydro-1H-pyrazolo[4,3-c]pyridin-1-yl)tetrahydrofuran-3-yl)acetonitrile] | 1.13 nM | 2.43 nM |

Second part, the compound after the results:

| IC50 [1] | IC50 [2] | SMILES |
| --- | --- | --- |
| 0.05 nM | 0.11 nM | N#CC[C@]1(n2nc(Nc3ccc(S(=O)(=O)C(F)F)cc3)c3c(=O)[nH]ccc32)CC[C@H](N2CC(F)C2)CC1 [Example 18-28, Trans 2-(1-(3-((4-((difluoromethyl)sulfonyl)phenyl)amino)-4-oxo-4,5-dihydro-1H-pyrazolo[4,3-c]pyridin-1-yl)-4-(3-fluoroazetidin-1-yl)cyclohexyl)acetonitrile] |
| 7.27 nM | 54.7 nM | N#CC[C@]1(n2nc(Nc3ccc(OC(F)(F)F)cc3)c3c(=O)[nH]ccc32)CC[C@H](Nc2ccccc2)CC1 [Example 18-18, Trans 2-(1-(4-oxo-3-((4-(trifluoromethoxy)phenyl)amino)-4,5-dihydro-1H-pyrazolo[4,3-c]pyridin-1-yl)-4-(phenylamino)cyclohexyl)acetonitrile] |
| 0.07 nM | 0.17 nM | CC(O)(c1ccc(Nc2nn([C@@]3(CC#N)CCCC[C@H]3F)c3cc[nH]c(=O)c23)cc1)C(F)(F)F (single isomer, unassigned) [Example 5-85, {(1R,2R)-2-fluoro-1-[4-oxo-3-({4-[(1S or 1R)-2,2,2-trifluoro-1-hydroxy-1-methylethyl]phenyl}amino)-4,5-dihydro-1H-pyrazolo[4,3-c]pyridin-1-yl]cyclohexyl}acetonitrile] |
| 2.77 nM | 3.06 nM | Cc1cc(Nc2nn(C3(CC#N)CCN(c4cc(C(F)(F)F)ccn4)CC3)c3cc[nH]c(=O)c23)ccc1C(=O)N1CCSCC1 [Example 16-1, 2-(4-(3-(3-methyl-4-(thiomorpholine-4-carbonyl)phenylamino)-4-oxo-4,5-dihydropyrazolo[4,3-c]pyridin-1-yl)-1-(4-(trifluoromethyl)pyridin-2-yl)piperidin-4-yl)acetonitrile] |
| 0.13 nM | 0.16 nM | CC(C)NC(c1ccc(Nc2nn([C@]3(CC#N)CCCOC3)c3cc[nH]c(=O)c23)cc1)C(F)(F)F (single isomer, unassigned) [Example 5-206, [(3S)-3-{4-oxo-3-[(4-{(1S or 1R)-2,2,2-trifluoro-1-[(1-methylethyl)amino]ethyl}phenyl)amino]-4,5-dihydro-1H-pyrazolo [4,3-c]pyridin-1-yl}tetrahydro-2H-pyran-3-yl]acetonitrile] |
| 14 nM | 130 nM | N#CC[C@]1(n2nc(Nc3ccc(Cl)cc3)c3c(=O)[nH]ccc32)CCOC1 (single isomer, unassigned) [Example 5-242, [(3S or 3R)-3-{3-[(4-chlorophenyl)amino]-4-oxo-4,5-dihydro-1H-pyrazolo[4,3-c]pyridin-1-yl}tetrahydrofuran-3-yl]acetonitrile] |
| 0.51 nM | 0.79 nM | N#CC[C@]1(n2nc(Nc3ccc([C@@]4(C(F)(F)F)CCCCN4)cc3)c3c(=O)[nH]ccc32)CCOC[C@H]1F (single isomer, unassigned) [Example 5-264, 2-((3S,4S or 3R,4R)-3-fluoro-4-(4-oxo-3-((4-((R or S)-2-(trifluoromethyl)piperidin-2-yl)phenyl)amino)-4,5-dihydro-1H-pyrazolo[4,3-c]pyridin-1-yl)tetrahydro-2H-pyran-4-yl)acetonitrile] |
| 0.25 nM | 0.57 nM | CN(C(C)(C)C)S(=O)(=O)c1ccc(Nc2nn([C@]3(CC#N)CCCOC3)c3cc[nH]c(=O)c23)cc1 [Example 5-182, N-tert-butyl-4-({1-[(3S)-3-(cyanomethyl)tetrahydro-2H-pyran-3-yl]-4-oxo-4,5-dihydro-1H-pyrazolo[4,3-c]pyridin-3-yl}amino)-N-methylbenzenesulfonamide] |
| 0.45 nM | 1.36 nM | CO[C@@H]1CCN(C(=O)c2ccc(Nc3nn([C@]4(CC#N)CCCOC4)c4cc[nH]c(=O)c34)cc2C)C1 [Example 5-117, 2-((S)-3-(3-((4-((R)-3-methoxypyrrolidine-1-carbonyl)-3-methylphenyl)amino)-4-oxo-4,5-dihydro-1H-pyrazolo[4,3-c]pyridin-1-yl)tetrahydro-2H-pyran-3-yl)acetonitrile] |
| 0.18 nM | 0.39 nM | Cc1cc(Nc2nn([C@]3(CC#N)CC[C@@H](C(=O)OC(C)(C)C)OC3)c3cc[nH]c(=O)c23)ccc1C(=O)N1CCSC1 [Example 5-155, (2S,5S)-tert-butyl 5-(cyanomethyl)-5-(3-((3-methyl-4-(thiazolidine-3-carbonyl)phenyl)amino)-4-oxo-4,5-dihydro-1H-pyrazolo[4,3-c]pyridin-1-yl)tetrahydro-2H-pyran-2-carboxylate] |
| 0.33 nM | 1.31 nM | Cc1cc(Nc2nn([C@]3(CC#N)CCCOC3)c3cc[nH]c(=O)c23)ccc1C(=O)N1CCC(O)(C(F)(F)F)C1 (single isomer, unassigned) [Example 5-114, 2-((S)-3-(3-((4-((S or R)-3-hydroxy-3-(trifluoromethyl)pyrrolidine-1-carbonyl)-3-methylphenyl)amino)-4-oxo-4,5-dihydro-1H-pyrazolo[4,3-c]pyridin-1-yl)tetrahydro-2H-pyran-3-yl)acetonitrile] |
